# Laboratory results from article PMC10571957, “αV-Integrin-Dependent Inhibition of Glioblastoma Cell Migration, Invasion and Vasculogenic Mimicry by the uPAcyclin Decapeptide” (Cancers, 2023).
# “And” between values parts separate entries of the source, which are not always exact repeats. Equal entries are not always repeated. Square brackets hold non-standard residues; d marks the D form. NMeV = CN[C@H](C(=O)O)C(C)C
# Assays:
# mice = system: mice; design: method as in PMID 12183425; conditions: ref [65]; cited from earlier work
# gynecologic malignancies = system: gynecologic malignancies; design: method as in PMID 18760451, PMID 22446624; conditions: ref [66],[67], cited from earlier work
# GBM models = conditions: cited from earlier work
# Description: (§1) Since the identification of the integrin-binding domain (RGD) in fibronectin/vitronectin, RGD-containing peptides and derived compounds have been developed. […] In contrast, other trials have not shown cilengitide to be better in terms of progression-free survival or overall survival than the standard treatment ...
# [1] = system: patients with advanced glioblastoma; conditions: cited from earlier work
# Description: as §1
# [2] = system: aggressive and recurrent meningiomas; conditions: combination with an mTOR inhibitor; ref [72]; cited from earlier work
# Description: As far as translation into clinics is concerned, it is worth mentioning that small peptides, such as uPAcyclin, are generally non-immunogenic and cost-effective to produce, and some of them have already entered clinical trials. […] Nevertheless, small peptides need to reach molecular targets to accomplish their effects. Thus, they often depend on physiological transports and ...
# [3] = system: U87-MG cells (αV integrin); assay: FITC-uPAcyclin receptor binding/competition, U87-MG; design: species or system human; conditions: vitronectin 200 µM, anti-αV 5 µg/mL, anti-α2 1 µg/mL
# Protocol: The U87-MG, U251-MG, and U138-MG cell lines were harvested and acid-treated, as described. Then, 2 × 10^6 cells/sample were exposed for 30 min at 4 °C to uPAcyclin or S-uPAcyclin at the indicated concentrations, or with the following antibodies: VNR147 monoclonal anti-αV integrin (Chemicon Int. Inc., Temecula, CA, USA), polyclonal anti-αV (Millipore, Burlington, MA, USA), monoclonal anti-α2 (Chemicon Int. Inc., Temecula, CA, USA), polyclonal anti-actin (Sigma-Aldrich, St. Louis, MO, USA), monoclonal anti-GAPDH (Abcam, Cambridge, UK), and purified vitronectin (VN, Corning, Glendale, AZ, USA). The cells were subsequently incubated with 50 nM FITC-uPAcyclin for 2 h at 4 °C, as described. At the end of incubation, the cells were washed and the cell surface-associated fluorescence was determined using a fluorimeter (VICTOR^TM X3-PerkinElmer, Waltham, MA, USA). All binding assays were performed three times, with duplicate samples, and analyzed as described in Section 2.11.
# Figure 2 αV expression of U87-MG, U251-MG, and U138-MG GBM cells and specific binding of FITC-uPAcyclin. (A) U87-MG, U251-MG, U138-MG, HEK-293, and HEK-293/αV total cell lysates were subjected to Western blotting and probed using polyclonal anti-αV or polyclonal anti-actin as loading control. (B) A total of 2 × 10^6 U87-MG, U251-MG, U138-MG, HEK-293/αV, or HEK-293 cells were pre-incubated for 30 min at 4 °C with 500 nM uPAcyclin and further exposed to 50 nM FITC-uPAcyclin for 2 h at 4 °C. At the end of the incubation, the unbound material was washed and cell-associated FITC-uPAcyclin was quantitated by a fluorimeter. The net value of cell-surface-associated fluorescence, corresponding to the specific binding, is shown. (C) A total of 2 × 10^6 U87-MG, U251-MG, and U138-MG cells were pre-incubated for 30 min at 4 °C with increasing concentrations of unlabeled uPAcyclin and then assayed for binding of FITC-uPAcyclin, for 2 h at 4 °C. Cell-surface-associated fluorescence, as percentage of the samples […], is shown. (D) U87-MG cells were pre-incubated with uPAcyclin (1 pM, 100 nM), scrambled uPAcyclin (S-uPAcyclin, 1 pM and 100 nM)), vitronectin (200 µM), anti-αv polyclonal (anti-αV Pclonal, 5 µg/mL) or monoclonal (anti-αV MoAb, 5 µg/mL) or anti-α2 monoclonal (anti-α2 MoAb, 1 µg/mL), polyclonal anti-actin, and monoclonal anti GAPDH. Then, cells were treated as in B (* p-value < 0.05; *** p-value < 0.001).
substance,measurement,setting,value
Ac-K^136PSSPPEE^143-NH2 [Å6],anti-angiogenetic and anti-metastatic activity,mice,clearcut anti-angiogenetic and anti-metastatic activities in mice
same,tolerability,"gynecologic malignancies; phase I, gynecologic malignancies",well tolerated
same,disease progression,gynecologic malignancies; phase II,delayed disease progression in the treated individuals
"cilengitide: known αVβ3/αVβ5 integrin inhibitor (cyclo(RGD[dF][NMeV]); chains of the INN, looked up)",effect in GBM models,GBM models; ref [51],"cytotoxic, anti-angiogenetic, and anti-invasive effect in GBM models"
same,tumor angiogenesis at lower doses,"GBM models; suggested reason for failure in GBM patients, ref [54]",detrimental stimulation of tumor angiogenesis at lower doses
same,overall survival effect,"[1]; patients with advanced glioblastoma, ref [52]",seemed to suggest a positive effect on overall survival
same,progression-free or overall survival vs standard treatments,[1]; ref [53],have not shown cilengitide to be better in terms of progression-free survival or overall survival than the standard treatments
octreotide,efficacy and tolerability,[2],effective and well tolerated
vitronectin: purified vitronectin (Corning),"competition with FITC-uPAcyclin binding, in words","[3]; U87-MG, S-uPAcyclin 1 pM and 100 nM",only at a high concentration
same,"FITC-uPAcyclin binding, single values","[3]; T-test sheet, single replicates of all EXPTs",42 and 50 and 45 and 47
